One experiment concerns TFEB. Nature of the experiment: TFEB translocation assay in HeLa cells (nuclear to cytoplasmic TFEB ratio, high-content imaging). It is filed as cell-based. Conditions: 90 mins incubation at 37° C., ratio of nuclear to cytoplasmic TFEB. As to the method: Example B2. TFEB Translocation Assay
Rabbit TFEB antibody, Cell Signaling Technology #4240S
PFA 16% MeOH-free, Election Microscopy Sciences #50-980-487
HCS CellMask Deep Red, ThermoFisher Scientific #H32721
Plates: Perkin Elmer Phenoplate #605730 black optically clear, tissue culture treated 384-well plate
Example B2.2 Method, Day 1: Cells Seeded in 384WP
Cells were seeded in the afternoon. The outer one row of the plate was not used to avoid outer well edge effects.
HeLa cells were detached using trypsin, and the cells were counted using a cell counter.
4000 HeLa cells were seeded per well in […] growth media (DMEM with 10% FBS, 1 mM sodium pyruvate and Pen-Strep).
Example B2.3 Method, Day 2: Assay with TRPML1 Compounds+Staining
Compounds were added to cells using a Tecan D300e dispenser.
Cells were incubated for 90 mins at 37° C. with the compounds (compound range: 80 nM-[…] (2× step dilution—8 dilution steps, 3 replicates per condition)
The cells were fixed by adding 16.5 μL of 16% PFA (4% final) and incubating for 15 min at room temperature.
The cells were washed with 3× in PBS-TX (PBS+0.1% Triton X-100)−1×100 μL followed by 2×50 μL.
The cells were blocked and permeabilized in 30 μL of blocking buffer (PBS-TX+5% goat serum) for 1 h.
The cells were incubated with TFEB antibody (1:200, CST 4240S) in 30 μL blocking buffer overnight at 4° C. The plates were kept damp to avoid evaporation.
Example B2.4 Method, Day 3: Staining+Imaging
The cells were washed 3× in PBS-TX—3×100 μL with a Biotek EL406 washer.
The cells were incubated with Goat anti-Rb Alexa-Fluor 488 (1:2000), cell mask (1:10,000) and Hoechst (1:10,000) in 30 μL blocking buffer for 1 h at room temperature. The solution was dispensed using a 5 μL peristaltic cassette (EL406).
The cells were washed 3× in PBS-TX—3×100 μL with a EL406 washer, then […] PBS was dispensed using a 5 μL peristaltic cassette (EL406).
The cells were imaged on an Operetta CLS High-content imaging system using a 20× water immersion objective (NA 1.0) the same day.
Image analysis was performed using Harmony V4.9 (Perkin Elmer). Briefly, nuclei were segmented from background-corrected images using Hoechst intensity, and cell body segmented using HCS CellMask DeepRed. A sliding parabola filter was applied to the AlexaFluor 488 channel (TFEB), before sum pixel intensity in the nuclear and cytoplasmic regions was calculated. A ratio of nuclear to cytoplasmic TFEB was used to define TFEB translocation from the cytosolic to nuclear compartment. The EC50 values derived by fitting the data to a sigmoidal dose response curve using Prism 9 (Graphpad).

A further experiment deals with TRPML1 (Homo sapiens, UniProt Q9GZU1). Nature of the experiment: Calcium flux in HEK293 overexpressing TRPML1 plasma membrane variant (FLIPR, Calcium 6 dye). The experiment is classed as cell-based. The following applies: HEK293/TRPML1-PM clone A5 cells; 4-parameter logistic fit; read-out: TRPML1 calcium flux (FLIPR) dose response: EC50. In outline:
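HEK293 clone expressing plasma-membrane-targeted TRPML1 (N- and C-terminal dileucine motifs deleted), loaded with Calcium 6 dye for 2 h at 37 °C in HBSS/20 mM HEPES pH 7.4. Fluorescence recorded 10 s baseline then 170 s after compound addition. Max-minus-min response over baseline fitted by 4-parameter logistic for EC50.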

Chain of TRPML1 (Q9GZU1 17-572 limits assumed): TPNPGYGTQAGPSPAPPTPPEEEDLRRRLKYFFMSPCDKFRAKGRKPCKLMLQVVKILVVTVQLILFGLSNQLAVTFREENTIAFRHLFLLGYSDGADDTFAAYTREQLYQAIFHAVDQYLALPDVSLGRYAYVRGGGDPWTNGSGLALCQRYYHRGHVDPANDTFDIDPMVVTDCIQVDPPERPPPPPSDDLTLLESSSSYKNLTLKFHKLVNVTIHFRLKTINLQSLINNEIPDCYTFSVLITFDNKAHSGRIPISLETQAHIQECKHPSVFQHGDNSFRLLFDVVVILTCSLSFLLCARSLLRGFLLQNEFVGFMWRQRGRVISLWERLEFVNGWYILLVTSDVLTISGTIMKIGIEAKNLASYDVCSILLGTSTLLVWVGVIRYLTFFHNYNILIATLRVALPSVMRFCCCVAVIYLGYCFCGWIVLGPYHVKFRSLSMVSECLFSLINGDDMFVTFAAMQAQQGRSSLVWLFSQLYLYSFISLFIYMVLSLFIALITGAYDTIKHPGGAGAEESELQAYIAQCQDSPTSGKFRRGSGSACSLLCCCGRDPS

As to `CN(CC1(F)CC1)c1ccccc1NS(=O)(=O)c1ccc(S(=O)(=O)N(C)C)cc1` [Compound 95, N1-(2-(((1-fluorocyclopropyl)methyl)(methyl)amino)phenyl)-N4,N4-dimethylbenzene-1,4-disulfonamide], the EC50 (as a rule, the concentration needed to bring the measured effect to its halfway point) in the experiment with TFEB turned out to be 0.915 µM; in the experiment on TFEB (Homo sapiens, HeLa, 1.5 h), 1.27 µM; at TRPML1 it was 0.274 µM.

Take `CN(CC1(F)CCCCC1)c1ccccc1NS(=O)(=O)c1ccc(S(=O)(=O)N(C)C)cc1` [Compound 96, N1-(2-(((1-fluorocyclohexyl)methyl)(methyl)amino)phenyl)-N4,N4-dimethylbenzene-1,4-disulfonamide]: the EC50 in the experiment on TFEB (Homo sapiens, 1.5 h) was 0.14 µM; on TRPML1, 0.247 µM.

Turning to `CN(c1ccccc1NS(=O)(=O)c1ccc(S(=O)(=O)N(C)C)cc1)C1CCOC1(C)C` (centres unmarked) [Compound 97, N1-(2-((2,2-dimethyltetrahydro-furan-3-yl)(methyl)amino)phenyl)-N4,N4-dimethylbenzene-1,4-disulfonamide], the EC50 is 0.516 µM in the experiment on TFEB (Homo sapiens, HeLa, 1.5 h) and 0.347 µM at TRPML1.

Turning to `Cc1cccc(NS(=O)(=O)c2ccc(S(=O)(=O)N(C)C)cc2)c1N(C)C1CCCCC1` [Compound 98, N1-(2-(cyclohexyl(methyl)amino)-3-methylphenyl)-N4,N4-dimethylbenzene-1,4-disulfonamide], the EC50 in the experiment with TFEB (Homo sapiens, HeLa, 1.5 h) worked out at 0.117 µM; at TRPML1, 0.0466 µM.

`CN(c1ccccc1NS(=O)(=O)c1ccc(S(=O)(=O)N(C)C)cc1)C1CCC(F)(F)C1` (centres unmarked) [Compound 99, N1-(2-((3,3-difluorocyclopentyl) (methyl)amino)phenyl)-N4,N4-dimethylbenzene-1,4-disulfonamide]: the EC50 in the experiment with TFEB (Homo sapiens, HeLa, 1.5 h) amounted to 0.573 µM; on TRPML1, 0.433 µM.

With `[2H]C([2H])([2H])N(c1ccccc1NS(=O)(=O)c1ccc(S(=O)(=O)N(C)C)cc1)C1CCCCC1` [Compound 102, N1-(2-(cyclohexyl(methyl-d3)amino)phenyl)-N4,N4-dimethylbenzene-1,4-disulfonamide], the EC50 in the experiment on TFEB (Homo sapiens, HeLa, 1.5 h) was determined as 0.388 µM; at TRPML1, 0.412 µM.

Consider `CN(c1ccccc1NS(=O)(=O)c1ccc(S(=O)(=O)N(C)C)cc1)C1CCCC(F)(F)C1` (centres unmarked) [Compound 104, N1-(2-((3,3-difluorocyclohexyl) (methyl)amino)phenyl)-N4,N4-dimethylbenzene-1,4-disulfonamide], for which the EC50 was found to be 0.573 µM with TFEB (Homo sapiens, HeLa, 1.5 h) and 0.715 µM on TRPML1.

On to `CN(CC1CCC1)c1ccccc1NS(=O)(=O)c1ccc(S(=O)(=O)N(C)C)cc1` [Compound 106, N1-(2-((cyclobutylmethyl)(methyl)amino)phenyl)-N4,N4-dimethylbenzene-1,4-disulfonamide], for which the EC50 in the experiment with TFEB (Homo sapiens, HeLa, 1.5 h) stood at 0.464 µM; on TRPML1, 0.371 µM.

Consider `CN(CC1CCCCO1)c1ccccc1NS(=O)(=O)c1ccc(S(=O)(=O)N(C)C)cc1` (centres unmarked) [Compound 108, N1,N1-dimethyl-N4-(2-(methyl((tetrahydro-2H-pyran-2-yl)methyl)amino)phenyl)benzene-1,4-disulfonamide], for which the EC50 with TFEB (Homo sapiens, HeLa, 1.5 h) amounted to 0.431 µM; on TRPML1, 0.79 µM.

On to `CN(c1ccc(C(F)(F)F)cc1NS(=O)(=O)c1ccc(S(=O)(=O)N(C)C)cc1)C1CCCCC1` [Compound 110, N1-(2-(cyclohexyl(methyl)amino)-5-(trifluoromethyl)phenyl)-N4,N4-dimethylbenzene-1,4-disulfonamide], for which the EC50 was determined as 0.246 µM with TFEB (Homo sapiens, 1.5 h) and 0.256 µM on TRPML1.

Regarding `CN(c1ccccc1NS(=O)(=O)c1ccc(S(=O)(=O)N(C)C)cc1)C1CCOC(C)(C)C1` (centres unmarked) [Compound 111, N1-(2-((2,2-dimethyltetrahydro-2H-pyran-4-yl)(methyl)amino)phenyl)-N4,N4-dimethylbenzene-1,4-disulfonamide], the EC50 in the experiment with TFEB (Homo sapiens, HeLa, 1.5 h) came to 3.29 µM; at TRPML1, 0.812 µM.

As to `CN(c1ccccc1NS(=O)(=O)c1ccc(S(=O)(=O)N(C)C)cc1)C12CC(C)(C1)C2` [Compound 115, N1,N1-dimethyl-N4-(2-(methyl(3-methylbicyclo[1.1.1]pentan-1-yl)amino)phenyl) benzene-1,4-disulfonamide], the EC50 turned out to be 0.758 µM with TFEB (Homo sapiens, HeLa, 1.5 h) and 1.1 µM on TRPML1.

As to `Cc1ccc(N(C)C2CCCCC2)c(NS(=O)(=O)c2ccc(S(=O)(=O)N(C)C)cc2)c1` [Compound 117, N1-(2-(cyclohexyl(methyl)amino)-5-methylphenyl)-N4,N4-dimethylbenzene-1,4-disulfonamide], the EC50 in the experiment with TFEB (Homo sapiens, HeLa, 1.5 h) was determined as 0.0837 µM; on TRPML1, 0.353 µM.

For the compound `CN(c1ccccc1NS(=O)(=O)c1ccc(S(=O)(=O)N(C)C)cc1)C1CCCCC1` [Compound 118, N1-(2-(cyclohexyl(methyl)amino)phenyl)-N4,N4-dimethylbenzene-1,4-disulfonamide], the EC50 in the experiment on TFEB (Homo sapiens, HeLa, 1.5 h) was determined as 0.529 µM; at TRPML1, 0.276 µM.

These data come from patent US20250340510A1, “Substituted Phenylbenzenesulfonamide Derivatives and Uses Thereof” (Nine Square Therapeutics Corporation, priority 2022, published 2025).
